Measured values from publication PMC9976286, “Combination of In Silico and In Vitro Screening to Identify Novel Glutamate Carboxypeptidase II Inhibitors” (Journal of Chemical Information and Modeling, 2023).
Several values for one entry are separate records, joined by “and”; a condition that tells them apart may be missing. Equal entries are not always repeated. Where two headings read alike, the source gives them in different places. One block for each compound: values may come before it.

Columns and labels:
Recombinant human GCPII [1] = molecular target: T1, Recombinant human GCPII (Homo sapiens, UniProt Q04609); experiment: In vitro GCPII inhibition assay, fluorescence-based, RP-HPLC readout (screening at 20 μM and IC50); type: biochemical; conditions: for IC50: substrate concentration at KM (100 nM Glu-Glu dipeptide labeled with fluorescein)
T1 construct: made in house
Protocol: The inhibitory potency of the selected compounds against GCPII was determined using a fluorescence-based assay developed in-house. Recombinant human GCPII purified as described previously[40],[41] (final concentration 0.02 nM) was preincubated with 20 μM test compound for the screening in 50 mM Tris-HCl, 150 mM NaCl, 0.001% C12E8 at 37 °C for 10 min. The reaction was initiated by the addition of 100 nM Glu-Glu dipeptide labeled with fluorescein (substrate)[42] in a total volume of 50 μL. Following 15 min incubation, the reaction was terminated by the addition of 5 μL of 0.1% TFA in 5% acetonitrile. […] The data were fitted using the GraphPad Prism software, and IC50 values were calculated from the inhibition curves of two independent experiments using a nonlinear analysis protocol.

Recombinant human GCPII [2] = molecular target: T1, Recombinant human GCPII; experiment: GCPII IC50 with substrate concentration 10x above KM (mode of inhibition); type: biochemical; conditions: for Increase of GCPII IC50 at 10x KM substrate versus KM: IC50 at 1 μM substrate relative to IC50 at 100 nM substrate; for IC50: substrate concentration 10 times above KM (1 μM)
Protocol: The inhibitory potency of the selected compounds against GCPII was determined using a fluorescence-based assay developed in-house. Recombinant human GCPII purified as described previously[40],[41] (final concentration 0.02 nM) was preincubated with 20 μM test compound for the screening in 50 mM Tris-HCl, 150 mM NaCl, 0.001% C12E8 at 37 °C for 10 min. […] Following 15 min incubation, the reaction was terminated by the addition of 5 μL of 0.1% TFA in 5% acetonitrile. Reaction mixtures were then analyzed by RP-HPLC with a Kinetex 2.6 μm XB-C18 100 Å column with a fluorescence detector set to λEX/λEM = 492/516. The GCPII inhibition in the SPECS hits samples was calculated using the noninhibited reaction as a control. Inhibition constants of the compounds active in the in vitro screening were determined using increasing concentrations of inhibitors. The data were fitted using the GraphPad Prism software, and IC50 values were calculated from the inhibition curves of two independent experiments using a nonlinear analysis protocol.

Recombinant human HDAC10 = molecular target: T2, Recombinant human HDAC10 (Homo sapiens, UniProt Q969S8); experiment: Inhibitor specificity: fluorescence-based HDAC10 activity assay; type: biochemical; conditions: for HDAC10 inhibition (in words): off-target specificity
T2 construct: made in house
T2 sequence (Q969S8 1-669): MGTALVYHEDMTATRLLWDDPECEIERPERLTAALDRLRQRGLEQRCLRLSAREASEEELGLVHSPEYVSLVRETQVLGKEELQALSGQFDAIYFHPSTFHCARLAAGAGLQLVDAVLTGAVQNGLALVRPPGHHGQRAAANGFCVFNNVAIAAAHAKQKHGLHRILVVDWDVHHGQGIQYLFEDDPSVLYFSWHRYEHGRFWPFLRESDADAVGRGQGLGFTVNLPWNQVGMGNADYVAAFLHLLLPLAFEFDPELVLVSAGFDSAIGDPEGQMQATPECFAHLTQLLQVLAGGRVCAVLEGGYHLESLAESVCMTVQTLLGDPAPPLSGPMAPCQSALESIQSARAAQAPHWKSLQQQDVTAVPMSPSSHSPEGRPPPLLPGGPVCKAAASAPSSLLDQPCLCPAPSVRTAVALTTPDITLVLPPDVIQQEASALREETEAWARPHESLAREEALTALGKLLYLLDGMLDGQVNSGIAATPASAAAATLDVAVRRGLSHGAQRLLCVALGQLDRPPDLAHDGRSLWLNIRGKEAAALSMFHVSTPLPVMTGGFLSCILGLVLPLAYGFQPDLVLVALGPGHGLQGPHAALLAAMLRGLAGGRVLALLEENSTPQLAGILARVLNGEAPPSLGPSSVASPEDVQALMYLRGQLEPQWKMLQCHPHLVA
Protocol: The fluorescence-based activity assay used was developed in-house. Recombinant human HDAC10 purified as described previously[43] (0.5 nM) was preincubated with dilution series of compounds in 50 mM 4-(2-hydroxyethyl)-1-piperazineethanesulfonic acid (HEPES), 140 mM NaCl, 10 mM KCl, 2 mg/mL bovine serum albumin (BSA), and 1 mM tris(2-carboxyethyl) phosphine, pH 7.4 at 37 °C for 10 min. The reaction was initiated by the addition of a 10 μM substrate (spermidine labeled with fluorescein, provided by the group of Prof. Mike Schutkowski)[43] in a total volume of 50 μL. Following 30-min incubation, the reaction was terminated by the addition of 5 μL of 0.5% acetic acid and centrifuged at 2000g at room temperature for 15 min to remove precipitated BSA. […] The HDAC10 inhibition was calculated using the noninhibited reaction as a control. Inhibition constants of the compounds were determined using increasing concentrations of inhibitors. The data were fitted using the GraphPad Prism software,[44] and IC50 values were calculated from the inhibition curves of two independent experiments using a nonlinear analysis protocol.

GCPII = conditions: cited from earlier work; for Ki: read-out: Ki[nM] (54 actives, PDB ID)
[3] = read-out: GCPII IC50 at substrate concentration 10 times above the KM
[4] = 10 μM fluorescein-labeled spermidine substrate, read-out: HDAC10 IC50
[5] = dataset of 54 GCPII ligands compiled from the PDB, read-out: IC50[nM] (54 actives, PDB ID)
[6] = listed by ChEMBL ID or PDB ID, read-out: GCPII IC50 (Fig. S20, inhibitors with subnanomolar activities)
[7] = dataset of 54 GCPII ligands compiled from the PDB

T1 sequence (Q04609 whole entry): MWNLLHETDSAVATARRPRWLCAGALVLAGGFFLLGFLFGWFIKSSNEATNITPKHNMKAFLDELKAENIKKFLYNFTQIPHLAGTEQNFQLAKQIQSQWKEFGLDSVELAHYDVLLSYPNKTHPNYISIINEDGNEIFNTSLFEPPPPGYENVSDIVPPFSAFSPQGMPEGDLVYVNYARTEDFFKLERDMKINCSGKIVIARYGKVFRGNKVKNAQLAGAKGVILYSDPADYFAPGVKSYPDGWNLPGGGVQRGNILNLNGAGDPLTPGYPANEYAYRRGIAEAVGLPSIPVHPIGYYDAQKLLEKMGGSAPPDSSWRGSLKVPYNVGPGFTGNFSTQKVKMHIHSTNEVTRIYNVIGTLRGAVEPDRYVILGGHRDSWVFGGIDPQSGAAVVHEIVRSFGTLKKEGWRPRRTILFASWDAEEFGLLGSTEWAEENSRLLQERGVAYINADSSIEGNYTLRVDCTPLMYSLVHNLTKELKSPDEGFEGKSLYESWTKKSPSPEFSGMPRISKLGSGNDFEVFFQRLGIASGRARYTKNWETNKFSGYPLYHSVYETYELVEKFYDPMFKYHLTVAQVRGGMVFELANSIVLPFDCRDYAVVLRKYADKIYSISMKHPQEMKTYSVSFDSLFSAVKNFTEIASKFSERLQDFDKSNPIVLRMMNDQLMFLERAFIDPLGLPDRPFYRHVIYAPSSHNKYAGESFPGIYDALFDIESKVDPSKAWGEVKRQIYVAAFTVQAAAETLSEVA

inhibition at 20 µM (Recombinant human GCPII [1]; compound at 20 μM, 100 nM fluorescein-labeled Glu-Glu dipeptide substrate, read-out: Inhibition [%] of GCPII activity): > 50%
IC50 (Recombinant human GCPII [1]): 15000 nM
Increase of GCPII IC50 at 10x KM substrate versus KM (Recombinant human GCPII [2]): approximately twice
IC50 (Recombinant human GCPII [2]; read-out: GCPII IC50 10x > KM): 27600 nM
IC50 (Recombinant human GCPII [2]; [3]): > 20000 nM
IC50 (Recombinant human HDAC10; [4]): > 100000 nM
HDAC10 inhibition (in words) (Recombinant human HDAC10): did not exhibit any HDAC10 inhibition
SMILES: O=[N+]([O-])c1ccc(C(CCc2nnn[nH]2)(CCc2nnn[nH]2)c2nnn[nH]2)cc1 [Compound 18]

IC50 (Recombinant human GCPII [1]): 353 ± 24 nM
Increase of GCPII IC50 at 10x KM substrate versus KM (Recombinant human GCPII [2]): 4 fold
IC50 (Recombinant human GCPII [2]; read-out: GCPII IC50 10x > KM): 1350 nM
IC50 (Recombinant human GCPII [2]; [3]): 1400 ± 100 nM
IC50 (Recombinant human HDAC10; HDAC10 IC50, 10 μM fluorescein-labeled spermidine substrate): > 100000 nM
HDAC10 inhibition (in words) (Recombinant human HDAC10): did not exhibit any HDAC10 inhibition
SMILES: O=C(O)c1ccccc1-c1c2ccc(=O)c(I)c-2oc2c(I)c(OS(=O)(=O)c3ccc(Br)cc3)ccc12 [Compound 46]

IC50 (Recombinant human GCPII [1]): 4500 nM and 4510 nM
Increase of GCPII IC50 at 10x KM substrate versus KM (Recombinant human GCPII [2]): approximately twice
IC50 (Recombinant human GCPII [2]; read-out: GCPII IC50 10x > KM): 9390 nM
IC50 (Recombinant human GCPII [2]; [3]): 9400 ± 100 nM
IC50 (Recombinant human HDAC10; [4]): 2210 nM and 2200 nM
SMILES: O=C(O)CSC1=C(SCC(=O)O)C(=O)C(SCC(=O)O)=C(SCC(=O)O)C1=O [Compound 17]

SMILES: CC(C)[C@H](NC(=O)c1ccc(F)cc1)C(=O)N[C@@H](CO[P@@](=O)(O)N[C@@H](CCC(=O)O)C(=O)O)C(=O)O [Compound 4P45]
IC50 (GCPII; [5]): 16 nM

SMILES: O=C(O)CC[C@H](NC(=O)N[C@@H](Cc1ccc(O)c(I)c1)C(=O)O)C(=O)O [Compound 3D7F]
IC50 (GCPII; [5]): 0.5 nM

SMILES: N[C@@H](CCC(=O)N[C@@H](COP(=O)(O)O[C@@H](CCC(=O)O)C(=O)O)C(=O)O)C(=O)O [CHEMBL1289263]
IC50 (GCPII; [6]): 0.55 nM

SMILES: O=C(N[C@@H](CCCCNC(=O)c1ccc(I)cc1)C(=O)O)NC1(C(=O)O)CC1 [Compound 4OC0]
Ki (GCPII; [7]): 318 nM

SMILES: O=C(O)CC[C@H](NC(=O)N[C@@H](CCCC(=O)Nc1cccc(F)c1)C(=O)O)C(=O)O [CHEMBL4277729]
IC50 (GCPII; [6]): 0.28 nM

SMILES: CN(C(=O)CCC[C@H](NC(=O)N[C@@H](CCC(=O)O)C(=O)O)C(=O)O)c1ccc(F)nc1 [Compound 6H7Z]
IC50 (GCPII; [5]): 0.13 nM

SMILES: O=C(N[C@@H](CCCCNC(=O)c1ccc(I)cc1)C(=O)O)N[C@@H](C[C@H]1CO1)C(=O)O [Compound 4OC1]
Ki (GCPII; [7]): 254 nM

SMILES: O=C(O)CC[C@H](NC(=O)N[C@@H](CCCC(=O)NCCNC(=O)c1ccc(F)cc1)C(=O)O)C(=O)O [CHEMBL4294773]
IC50 (GCPII; [6]): 0.94 nM

SMILES: O=C(O)CC[C@H](C[P@@](=O)(O)CCC(=O)O)C(=O)O [Compound 3BHX]
IC50 (GCPII; [5]): 0.7 nM

SMILES: O=C(O)CC[C@H](N[P@](=O)(O)OCCC[C@H](NC(=O)CC[C@H](NC(=O)c1ccc(F)cc1)C(=O)O)C(=O)O)C(=O)O [Compound 4LQG]
IC50 (GCPII; [5]): 1.3 nM

SMILES: O=C(O)CC[C@H](NC(=O)N[C@@H](CCCC(=O)Nc1ccc(F)nc1)C(=O)O)C(=O)O [Compound 6HKJ]
IC50 (GCPII; [5]): 0.99 nM

SMILES: O=C(CC[C@@H](Cc1ccc(C(=O)O)cc1)C(=O)O)NO [Compound 5D29]
IC50 (GCPII; [5]): 97 nM

SMILES: CC[C@@H](C)[C@H](NC(=O)c1ccc(F)cc1)C(=O)N[C@@H](CO[P@@](=O)(O)N[C@@H](CCC(=O)O)C(=O)O)C(=O)O [Compound 4P44]
IC50 (GCPII; [5]): 16 nM

SMILES: CSCC[C@H](NC(=O)N[C@@H](CCCCNC(=O)c1ccc(I)cc1)C(=O)O)C(=O)O [Compound 3SJF]
IC50 (GCPII; [5]): 23 nM

SMILES: O=C(O)CC[C@H](NC(=O)N[C@@H](CCCC(=O)Nc1ccc(F)cc1)C(=O)O)C(=O)O [Compound 6H7Y]
IC50 (GCPII; [5]): 0.35 nM

SMILES: O=C(O)CC[C@H](NC(=O)N[C@@H](CCCC(=O)N(CCNC(=O)c1ccc(F)cc1)c1ccccc1)C(=O)O)C(=O)O [CHEMBL4286872]
IC50 (GCPII; [6]): 0.15 nM

SMILES: O=C(O)CC[C@H](N[P@](=O)(O)OC[C@H](NC(=O)c1ccccc1)C(=O)O)C(=O)O [Compound 4P4I]
IC50 (GCPII; [5]): 35 nM

SMILES: O=C(N[C@@H](CCCCNC(=O)c1ccc(I)cc1)C(=O)O)N[C@H](C(=O)O)c1ccc(O)cc1 [Compound 4OC5]
Ki (GCPII; [7]): 85 nM

SMILES: O=C(O)CC[C@H](NC(=O)N[C@@H](CCCC(=O)NCc1ccc(F)cc1)C(=O)O)C(=O)O [Compound 5OF0]
IC50 (GCPII; [5]): 2.32 nM
